MIC data for 21 molecules are collected here from patent publication US10471046B2, “Method for treating, preventing, or reducing the risk of skin infection” (Melinta Subsidiary Corp., priority 2014, dated 2019).

The test system of this test is S. aureus. As to the kind of experiment: Minimum inhibitory concentrations (MICs) for S. aureus of exemplary compounds (Table 2). The class given is cell-based. Conditions: Staphylococcus aureus, minimum inhibitory concentrations for S. aureus; read-out: MICs. The method in brief:
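Growth of S. aureus in media with or without compound, by broth microdilution in microtiter trays following NCCLS M7-A5 guidelines. Values are MICs in μg/mL.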

In brackets after ≈: the same amount, converted by molar mass.

As to `COc1cc(CNCc2ccoc2)ccc1-c1ccc(N2C[C@H](CNC(C)=O)OC2=O)cc1F` [Compound 4028, N-[3-(2-Fluoro-4′-{[(furan-3-ylmethyl)-amino]-methyl}-2′-methoxy-biphenyl-4-yl)-2-oxo-oxazolidin-5-(S)-ylmethyl]-acetamide], the MIC turned out to be 8 µg/mL (≈ 17.1 µM).

On to `CC(=O)NC[C@H]1CN(c2ccc(-c3ccc([C@H](CO)NCc4ccncc4)cc3)c(F)c2)C(=O)O1` [Compound 4029, N-[3-(2-Fluoro-4′-{2-hydroxy-1-(R)-[(pyridin-4-ylmethyl)-amino]-ethyl}-biphenyl-4-yl)-2-oxo-oxazolidin-5-(S)-ylmethyl]-acetamide], for which the MIC turned out to be 4 µg/mL (≈ 8.36 µM).

Regarding `CC(=O)NC[C@H]1CN(c2ccc(-c3ccc([C@H](CO)NCc4c(C)nc(O)nc4O)cc3)c(F)c2)C(=O)O1` [Compound 4030, N-[3-(4′-{1-(R)-[(2,4-Dihydroxy-6-methyl-pyrimidin-5-ylmethyl)-amino]-2-hydroxy-ethyl}-2-fluoro-biphenyl-4-yl)-2-oxo-oxazolidin-5-(S)-ylmethyl]-acetamide], the MIC is 64 µg/mL (≈ 122 µM).

As for `CC(=O)NC[C@H]1CN(c2ccc(-c3ccc([C@H](CO)NCc4ccnc5ccccc45)cc3)c(F)c2)C(=O)O1` [Compound 4031, N-[3-(2-Fluoro-4′-{2-hydroxy-1-(R)-[(quinolin-4-ylmethyl)-amino]-ethyl}-biphenyl-4-yl)-2-oxo-oxazolidin-5-(S)-ylmethyl]-acetamide], the MIC was 2 µg/mL (≈ 3.78 µM).

In the case of `CC(=O)NC[C@H]1CN(c2ccc(-c3ccc(CN(C)Cc4ccnc5ccccc45)cc3)c(F)c2)C(=O)O1` [Compound 4032, N-(3-{2-Fluoro-4′-[(methyl-quinolin-4-ylmethyl-amino)-methyl]-biphenyl-4-yl}-2-oxo-oxazolidin-5-(S)-ylmethyl)-acetamide], the MIC is 1 µg/mL (≈ 1.95 µM).

Take `COc1cc(CN(C)Cc2ccncc2)ccc1-c1ccc(N2C[C@H](CNC(C)=O)OC2=O)cc1F` [Compound 4033, N-(3-{2-Fluoro-2′-methoxy-4′-[(methyl-pyridm-4-ylmethyl-amino)-methyl]-biphenyl-4-yl}-2-oxo-oxazolidin-5-(S)-ylmethyl)-acetamide]: the MIC was found to be 8 µg/mL (≈ 16.2 µM).

For `COc1cc(CN(C)Cc2ccoc2)ccc1-c1ccc(N2C[C@H](CNC(C)=O)OC2=O)cc1F` [Compound 4034, N-(3-{2-Fluoro-4′-[(furan-3-ylmethyl-methyl-amino)-methyl]-2′-methoxy-biphenyl-4-yl}-2-oxo-oxazolidin-5-(S)-ylmethyl)-acetamide], the MIC is 32 µg/mL (≈ 66.5 µM).

As for `CCN(Cc1ccncc1)Cc1ccc(-c2ccc(N3C[C@H](CNC(C)=O)OC3=O)cc2F)cc1` [Compound 4035, N-(3-{4′-[(Ethyl-pyridin-4-ylmethyl-amino)-methyl]-2-fluoro-biphenyl-4-yl}-2-oxo-oxazolidin-5-(S)-ylmethyl)-acetamide], the MIC worked out at 2 µg/mL (≈ 4.2 µM).

As to `CC(=O)NC[C@H]1CN(c2ccc(-c3ccc(CN(C)Cc4c(C)nc(O)nc4O)cc3)c(F)c2)C(=O)O1` [Compound 4036, N-[3-(4′-{[(2,4-Dihydroxy-6-methyl-pyrimidin-5-ylmethyl)-methyl-amino]-methyl}-2-fluoro-biphenyl-4-yl)-2-oxo-oxazolidin-5-(S)-ylmethyl]-acetamide], the MIC was 4 µg/mL (≈ 7.85 µM).

Regarding `COc1cc(CN(Cc2ccc(-c3ccc(N4C[C@H](CNC(C)=O)OC4=O)cc3F)cc2)Cc2ccc(O)c(OC)c2)ccc1O` [Compound 4037, N-[3-(4′-{[Bis-(4-hydroxy-3-methoxy-benzyl)-amino]-methyl}-2-fluoro-biphenyl-4-yl)-2-oxo-oxazolidin-5-(S)-ylmethyl]-acetamide], the MIC is 2 µg/mL (≈ 3.18 µM).

On to `CC(=O)NC[C@H]1CN(c2ccc(-c3ccc(CNCc4cnoc4)cc3)c(F)c2)C(=O)O1` [Compound 4038, N-[3-(2-Fluoro-4′-{[(isoxazol-4-ylmethyl)-amino]-methyl}-biphenyl-4-yl)-2-oxo-oxazolidin-5-(S)-ylmethyl]-acetamide], for which the MIC worked out at 0.25 µg/mL (≈ 0.57 µM).

Regarding `CC(=O)NC[C@H]1CN(c2ccc(-c3ccc(CN(C)Cc4ccncc4)cc3)c(F)c2)C(=O)O1` [Compound 4044, N-(3-{2-Fluoro-4′-[(methyl-pyridin-4-ylmethyl-amino)-methyl]-biphenyl-4-yl}-2-oxo-oxazolidin-5-(S)-ylmethyl)-acetamide], the MIC is 1 µg/mL (≈ 2.16 µM).

As for `CC(=O)NC[C@H]1CN(c2ccc(-c3ccc(CN(C)Cc4ccccn4)cc3)c(F)c2)C(=O)O1` [Compound 4045, N-(3-{2-Fluoro-4′-[(methyl-pyridin-2-ylmethyl-amino)-methyl]-biphenyl-4-yl}-2-oxo-oxazolidin-5-(S)-ylmethyl)-acetamide], the MIC is 2 µg/mL (≈ 4.32 µM).

As to `CC(=O)NC[C@H]1CN(c2ccc(-c3ccc(CN(C)Cc4cc(Cl)cc(Cl)c4)cc3)c(F)c2)C(=O)O1` [Compound 4046, N-[3-(4′-{[(3,5-Dichloro-benzyl)-methyl-amino]-methyl}-2-fluoro-biphenyl-4-yl)-2-oxo-oxazolidin-5-(S)-ylmethyl]-acetamide], the MIC was found to be 4 µg/mL (≈ 7.54 µM).

Consider `CC(=O)NC[C@H]1CN(c2ccc(-c3ccc(CN(C)Cc4cccnc4)cc3)c(F)c2)C(=O)O1` [Compound 4047, N-(3-{2-Fluoro-4′-[(methyl-pyridin-3-ylmethyl-amino)-methyl]-biphenyl-4-yl}-2-oxo-oxazolidin-5-(S)-ylmethyl)-acetamide], for which the MIC was 2 µg/mL (≈ 4.32 µM).

Turning to `CC(=O)NC[C@H]1CN(c2ccc(-c3ccc(CNCc4ccc[nH]4)cc3)c(F)c2)C(=O)O1` [Compound 4048, N-[3-(2-Fluoro-4′-{[(1H-pyrrol-2-ylmethyl)-amino]-methyl}-biphenyl-4-yl)-2-oxo-oxazolidin-5-(S)-ylmethyl]-acetamide], the MIC was determined as 2 µg/mL (≈ 4.58 µM).

Turning to `CC(=O)NC[C@H]1CN(c2ccc(-c3ccc(CNCc4cc5ccccc5n4C)cc3)c(F)c2)C(=O)O1` [Compound 4049, N-[3-(2-Fluoro-4′-{[(1-methyl-1H-indol-2-ylmethyl)-amino]-methyl}-biphenyl-4-yl)-2-oxo-oxazolidin-5-(S)-ylmethyl]-acetamide], the MIC was determined as 1 µg/mL (≈ 2 µM).

With `CC(=O)NC[C@H]1CN(c2ccc(-c3ccc(CN(C)C(=O)c4ccc5cc[nH]c5c4)cc3)c(F)c2)C(=O)O1` [Compound 4050, 1H-Indole-6-carboxylic acid {4′-[5-(S)-(acetylamino-methyl)-2-oxo-oxazolidin-3-yl]-2′-fluoro-biphenyl-4-ylmethyl}-methyl-amide], the MIC was 1 µg/mL (≈ 1.94 µM).

On to `CC(=O)NC[C@H]1CN(c2ccc(-c3ccc(CN(C)C(=O)c4cccn4C)cc3)c(F)c2)C(=O)O1` [Compound 4051, 1-Methyl-1H-pyrrole-2-carboxylic acid {4′-[5-(S)-(acetylamino-methyl)-2-oxo-oxazolidin-3-yl]-2′-fluoro-biphenyl-4-ylmethyl}-methyl-amide], for which the MIC was found to be 4 µg/mL (≈ 8.36 µM).

In the case of `CC(=O)NC[C@H]1CN(c2ccc(-c3ccc(CNCc4ccncc4)cn3)c(F)c2)C(=O)O1` [Compound 4052, N-{3-[3-Fluoro-4-(5-{[(pyridin-4-ylmethyl)-amino]-methyl}-pyridin-2-yl)-phenyl]-2-oxo-oxazolidin-5-(S)-ylmethyl}-acetamide], the MIC came to 64 µg/mL (≈ 142 µM).

Consider `CC(=O)NC[C@H]1CN(c2ccc(-c3ccc(CNCc4ccoc4)cn3)c(F)c2)C(=O)O1` [Compound 4053, N-{3-[3-Fluoro-4-(5-{[(furan-3-ylmethyl)-amino]-methyl}-pyridin-2-yl)-phenyl]-2-oxo-oxazolidin-5-(S)-ylmethyl}-acetamide], for which the MIC was determined as 4 µg/mL (≈ 9.12 µM).
